The values that follow come from PubChem BioAssay AID743016 (Vanderbilt Specialized Chemistry Center, 2013).

Each structure is given as a SMILES string.

For the assay, the target named is Mas-related G-protein coupled receptor member X1 (Homo sapiens) (UniProt Q96LB2). Description: enhancers of MrgX1 receptor signaling – cell-based, HEK293, calcium flux, BAM8-22, dose response (AID 743016). Conditions: HEK293-MrgX1, Fluo4 calcium flux, BAM8-22 potentiation; with BAM 0.1 µM.
Sequence of Mas-related G-protein coupled receptor member X1 (Homo sapiens) (Q96LB2 whole entry, looked up): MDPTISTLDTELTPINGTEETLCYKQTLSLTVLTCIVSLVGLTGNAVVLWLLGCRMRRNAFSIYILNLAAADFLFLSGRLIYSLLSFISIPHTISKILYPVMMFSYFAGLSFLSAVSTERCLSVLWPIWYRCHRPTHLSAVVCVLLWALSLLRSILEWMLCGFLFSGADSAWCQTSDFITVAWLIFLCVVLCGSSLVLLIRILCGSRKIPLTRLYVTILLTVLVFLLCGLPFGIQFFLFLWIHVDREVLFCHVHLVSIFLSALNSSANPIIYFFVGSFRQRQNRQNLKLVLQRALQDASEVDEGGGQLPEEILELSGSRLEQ
Regarding `COc1ccc(C)cc1NC(=O)c1ccccc1NS(C)(=O)=O`, the EC50 (in general, the concentration giving half of the maximal effect) is 2.34 µM. With `COC(=O)c1ccccc1NC(=O)c1ccccc1N(C)S(C)(=O)=O` the figure was 1.57 µM; with `CCOc1ccccc1NC(=O)c1ccccc1NS(=O)(=O)C(C)C`, 1.82 µM; with `CCOc1ccccc1NC(=O)c1ccccc1NS(=O)(=O)CC1CC1`, 4.47 µM. For the molecule `CCOc1ccccc1NC(=O)c1ccccc1NS(=O)(=O)CCCl`, the EC50 was 0.38 µM. For `COc1ccc(NC(=O)c2ccccc2NS(C)(=O)=O)c(OC)c1`, the EC50 is 0.15 µM. On to `CCOc1ccccc1NC(=O)c1ccccc1N(C)S(C)(=O)=O`, for which the EC50 is 1.39 µM.

`CSc1ccccc1NC(=O)c1ccccc1NS(C)(=O)=O`: the EC50 was 0.42 µM. With `CCOc1ccccc1NC(=O)c1ccccc1NS(=O)(=O)C1CC1` the figure was 0.19 µM; with `CCOc1ccccc1NC(=O)c1ccccc1NS(C)(=O)=O`, 1.91 µM. Under `COc1ccc(Cl)cc1NC(=O)c1ccccc1NS(C)(=O)=O` stands 1.01 µM. With `COc1ccc(NC(=O)c2ccccc2NS(=O)(=O)c2cccnc2Cl)c(OC)c1` the figure was 2.91 µM. Regarding `COc1ccccc1NC(=O)c1ccccc1NS(C)(=O)=O`, the EC50 is 3.06 µM. Under `CCOc1ccccc1NC(=O)c1ccccc1NS(=O)(=O)CC` stands 0.91 µM; under `CSc1ccccc1NC(=O)c1ccccc1N(C)S(C)(=O)=O`, 0.5 µM.
